{"source": "patent US20250381242A1", "about": "(INVAIO SCIENCES, INC., priority 2024, published 2025)", "key": {"E. coli": {"system": "E. coli", "test": "Bacterial growth inhibition by OD600 absorbance, E. coli", "assay_type": "cell-based, E. coli (DH5-alpha)", "details": "peptide 10 μM, 24 hours at 37° C., OD 600 nm", "protocol": "(§1) Antimicrobial activity of antimicrobial peptides was tested against the agricultural microbial pests A. tumefaciens, E. amylovora, E. coli, and X. citri, using OD absorbance measurement to detect bacterial growth.\n(§2) Antimicrobial peptides were synthesized using solid phase peptide synthesis method and resuspended in 10% DMSO to a 1 mM stock concentration. The stock solution was aliquoted in cryovials and stored at −80° C.\n(§3) An aliquot of 198 μl of the bacterial culture was added to each well in a 96-well plate and 2 μl of a 1 mM peptide stock solution was added to each well, for a final treatment concentration of 10 μM of a given peptide. Media only wells were included to control for contamination. The positive controls were 50 μg/ml oxytetracycline hydrochloride and 500 μg/ml streptomycin sulfate. A 0.1% DMSO treatment was included as a negative control.\n(§4) An initial absorbance reading of the bacterial suspensions was taken at 600 nm. Then, the bacteria were grown in an incubator at 30° C. (A. tumefaciens, E. amylovora, X. citri) or 37° C. (E. coli) for 24 hours, after which the final absorbance reading was measured. Using the initial and final absorbance reading compared to negative and positive controls, the percent inhibition of the bacterial strain by given peptide treatment was determined."}, "X. citri": {"system": "X. citri", "test": "Bacterial growth inhibition by OD600 absorbance, X. citri", "assay_type": "cell-based, X. citri subsp. citri (ATCC 49118)", "details": "peptide 10 μM, 24 hours at 30° C., OD 600 nm", "protocol": "as §1, §2, §3, §4"}, "A. tumefaciens": {"system": "A. tumefaciens", "details": "24 h, 10 μM"}, "E. amylovora": {"system": "E. amylovora", "details": "24 h, 10 μM"}, "L. crescens": {"system": "L. crescens", "details": "10 μM"}}, "note": "No end group written: not given here.", "data": [{"sequence": "GILKTIKSIASKLKRKAK [compound 85]", "values": [{"measurement": "growth inhibition, E. coli", "setting": "E. coli", "result": "<90", "unit": "%"}, {"measurement": "growth inhibition, X. citri", "setting": "X. citri", "result": "<90", "unit": "%"}, {"measurement": "growth inhibition, A. tumefaciens", "setting": "A. tumefaciens", "result": "<90", "unit": "%"}, {"measurement": "growth inhibition, E. amylovora", "setting": "E. amylovora", "result": 99.65, "unit": "%"}, {"measurement": "growth inhibition, L. crescens", "setting": "L. crescens", "result": "<90", "unit": "%"}]}, {"sequence": "GILKTIKSIASKVANTVQKLKRKAKNAVA [compound 20]", "values": [{"measurement": "growth inhibition, E. coli", "setting": "E. coli", "result": 99.03, "unit": "%"}, {"measurement": "growth inhibition, X. citri", "setting": "X. citri", "result": 100.00, "unit": "%"}, {"measurement": "growth inhibition, A. tumefaciens", "setting": "A. tumefaciens", "result": 100.00, "unit": "%"}, {"measurement": "growth inhibition, E. amylovora", "setting": "E. amylovora", "result": 100.00, "unit": "%"}, {"measurement": "growth inhibition, L. crescens", "setting": "L. crescens", "result": "<90", "unit": "%"}]}, {"sequence": "GILSKLGKALKKAAKHAAKA [compound 82]", "values": [{"measurement": "growth inhibition, E. coli", "setting": "E. coli", "result": "<90", "unit": "%"}, {"measurement": "growth inhibition, X. citri", "setting": "X. citri", "result": "<90", "unit": "%"}, {"measurement": "growth inhibition, A. tumefaciens", "setting": "A. tumefaciens", "result": "<90", "unit": "%"}, {"measurement": "growth inhibition, E. amylovora", "setting": "E. amylovora", "result": 100.00, "unit": "%"}, {"measurement": "growth inhibition, L. crescens", "setting": "L. crescens", "result": "<90", "unit": "%"}]}, {"sequence": "GIMSSLMKKLKKIIAK [compound 99]", "values": [{"measurement": "growth inhibition, E. coli", "setting": "E. coli", "result": "<90", "unit": "%"}, {"measurement": "growth inhibition, X. citri", "setting": "X. citri", "result": "<90", "unit": "%"}, {"measurement": "growth inhibition, A. tumefaciens", "setting": "A. tumefaciens", "result": 98.76, "unit": "%"}, {"measurement": "growth inhibition, E. amylovora", "setting": "E. amylovora", "result": 100.00, "unit": "%"}, {"measurement": "growth inhibition, L. crescens", "setting": "L. crescens", "result": "<90", "unit": "%"}]}, {"sequence": "GKLTKDKLKRGAKKALNVASKVAPIVAAGASIAR [compound 10]", "values": [{"measurement": "growth inhibition, E. coli", "setting": "E. coli", "result": "<90", "unit": "%"}, {"measurement": "growth inhibition, X. citri", "setting": "X. citri", "result": 100.00, "unit": "%"}, {"measurement": "growth inhibition, A. tumefaciens", "setting": "A. tumefaciens", "result": 98.37, "unit": "%"}, {"measurement": "growth inhibition, E. amylovora", "setting": "E. amylovora", "result": 100.00, "unit": "%"}, {"measurement": "growth inhibition, L. crescens", "setting": "L. crescens", "result": "<90", "unit": "%"}]}, {"sequence": "GLLKKIAKKAKKALKKLGY [compound 74]", "values": [{"measurement": "growth inhibition, E. coli", "setting": "E. coli", "result": "<90", "unit": "%"}, {"measurement": "growth inhibition, X. citri", "setting": "X. citri", "result": 100.00, "unit": "%"}, {"measurement": "growth inhibition, A. tumefaciens", "setting": "A. tumefaciens", "result": 100.00, "unit": "%"}, {"measurement": "growth inhibition, E. amylovora", "setting": "E. amylovora", "result": 100.00, "unit": "%"}, {"measurement": "growth inhibition, L. crescens", "setting": "L. crescens", "result": "<90", "unit": "%"}]}, {"sequence": "GLLKKWLKKWKEFKRIVGY [compound 57]", "values": [{"measurement": "growth inhibition, E. coli", "setting": "E. coli", "result": 100.00, "unit": "%"}, {"measurement": "growth inhibition, X. citri", "setting": "X. citri", "result": 100.00, "unit": "%"}, {"measurement": "growth inhibition, A. tumefaciens", "setting": "A. tumefaciens", "result": 99.99, "unit": "%"}, {"measurement": "growth inhibition, E. amylovora", "setting": "E. amylovora", "result": 100.00, "unit": "%"}, {"measurement": "growth inhibition, L. crescens", "setting": "L. crescens", "result": "<90", "unit": "%"}]}, {"sequence": "GLLSNVAGLLKQFAKGGVNAVLNPK [compound 45]", "values": [{"measurement": "growth inhibition, E. coli", "setting": "E. coli", "result": "<90", "unit": "%"}, {"measurement": "growth inhibition, X. citri", "setting": "X. citri", "result": 100.00, "unit": "%"}, {"measurement": "growth inhibition, A. tumefaciens", "setting": "A. tumefaciens", "result": "<90", "unit": "%"}, {"measurement": "growth inhibition, E. amylovora", "setting": "E. amylovora", "result": 99.64, "unit": "%"}, {"measurement": "growth inhibition, L. crescens", "setting": "L. crescens", "result": "<90", "unit": "%"}]}, {"sequence": "GLWSKIKKAAKTAGKAALGFVNKMV [compound 35]", "values": [{"measurement": "growth inhibition, E. coli", "setting": "E. coli", "result": 100.00, "unit": "%"}, {"measurement": "growth inhibition, X. citri", "setting": "X. citri", "result": 100.00, "unit": "%"}, {"measurement": "growth inhibition, A. tumefaciens", "setting": "A. tumefaciens", "result": 100.00, "unit": "%"}, {"measurement": "growth inhibition, E. amylovora", "setting": "E. amylovora", "result": 100.00, "unit": "%"}, {"measurement": "growth inhibition, L. crescens", "setting": "L. crescens", "result": "<90", "unit": "%"}]}, {"sequence": "GLWSKIKTAGKSVAKAAAKAAVKAVTNAV [compound 28]", "values": [{"measurement": "growth inhibition, E. coli", "setting": "E. coli", "result": 100.00, "unit": "%"}, {"measurement": "growth inhibition, X. citri", "setting": "X. citri", "result": 100.00, "unit": "%"}, {"measurement": "growth inhibition, A. tumefaciens", "setting": "A. tumefaciens", "result": 100.00, "unit": "%"}, {"measurement": "growth inhibition, E. amylovora", "setting": "E. amylovora", "result": 100.00, "unit": "%"}, {"measurement": "growth inhibition, L. crescens", "setting": "L. crescens", "result": "<90", "unit": "%"}]}, {"sequence": "GMWKKILGKLIR [compound 134]", "values": [{"measurement": "growth inhibition, E. coli", "setting": "E. coli", "result": "<90", "unit": "%"}, {"measurement": "growth inhibition, X. citri", "setting": "X. citri", "result": "<90", "unit": "%"}, {"measurement": "growth inhibition, A. tumefaciens", "setting": "A. tumefaciens", "result": 100.00, "unit": "%"}, {"measurement": "growth inhibition, E. amylovora", "setting": "E. amylovora", "result": 100.00, "unit": "%"}, {"measurement": "growth inhibition, L. crescens", "setting": "L. crescens", "result": "<90", "unit": "%"}]}, {"sequence": "GMWSKLLGHLLR [compound 138]", "values": [{"measurement": "growth inhibition, E. coli", "setting": "E. coli", "result": "<90", "unit": "%"}, {"measurement": "growth inhibition, X. citri", "setting": "X. citri", "result": "<90", "unit": "%"}, {"measurement": "growth inhibition, A. tumefaciens", "setting": "A. tumefaciens", "result": 100.00, "unit": "%"}, {"measurement": "growth inhibition, E. amylovora", "setting": "E. amylovora", "result": 100.00, "unit": "%"}, {"measurement": "growth inhibition, L. crescens", "setting": "L. crescens", "result": "<90", "unit": "%"}]}, {"sequence": "GWKDWAKKAGGWLKKKGPGMAKAALKAAMQ [compound 2]", "values": [{"measurement": "growth inhibition, E. coli", "setting": "E. coli", "result": "<90", "unit": "%"}, {"measurement": "growth inhibition, X. citri", "setting": "X. citri", "result": 100.00, "unit": "%"}, {"measurement": "growth inhibition, A. tumefaciens", "setting": "A. tumefaciens", "result": 100.00, "unit": "%"}, {"measurement": "growth inhibition, E. amylovora", "setting": "E. amylovora", "result": 100.00, "unit": "%"}, {"measurement": "growth inhibition, L. crescens", "setting": "L. crescens", "result": "<90", "unit": "%"}]}, {"sequence": "GWKKWLRKGAKHLGQAAIKGLAS [compound 46]", "values": [{"measurement": "growth inhibition, E. coli", "setting": "E. coli", "result": 100.00, "unit": "%"}, {"measurement": "growth inhibition, X. citri", "setting": "X. citri", "result": 100.00, "unit": "%"}, {"measurement": "growth inhibition, A. tumefaciens", "setting": "A. tumefaciens", "result": 100.00, "unit": "%"}, {"measurement": "growth inhibition, E. amylovora", "setting": "E. amylovora", "result": 100.00, "unit": "%"}, {"measurement": "growth inhibition, L. crescens", "setting": "L. crescens", "result": "<90", "unit": "%"}]}, {"sequence": "GWWRRTVDKVRNAGRKVAGFASKACGALGH [SEQ ID NO: 13]", "values": [{"measurement": "growth inhibition, A. tumefaciens", "setting": "A. tumefaciens", "result": "greater than 90%"}, {"measurement": "growth inhibition, E. amylovora", "setting": "E. amylovora", "result": "greater than 90%"}, {"measurement": "growth inhibition, L. crescens", "setting": "L. crescens", "result": "greater than 90%"}]}, {"sequence": "KFWSLLKKALRLWANVL [SEQ ID NO: 76]", "values": [{"measurement": "growth inhibition, A. tumefaciens", "setting": "A. tumefaciens", "result": "greater than 90%"}, {"measurement": "growth inhibition, E. amylovora", "setting": "E. amylovora", "result": "greater than 90%"}, {"measurement": "growth inhibition, L. crescens", "setting": "L. crescens", "result": "greater than 90%"}]}, {"sequence": "KWKSFIKNLEKVLKKGPILANLVSIV [SEQ ID NO: 23]", "values": [{"measurement": "growth inhibition, A. tumefaciens", "setting": "A. tumefaciens", "result": "greater than 90%"}, {"measurement": "growth inhibition, E. amylovora", "setting": "E. amylovora", "result": "greater than 90%"}, {"measurement": "growth inhibition, L. crescens", "setting": "L. crescens", "result": "greater than 90%"}]}]}
